{"source": "patent US20080009418A1", "about": "“Selective Inhibitors” (Alchemia LTD., priority 2004, published 2008)", "settings_in_all_cases": "compound at 10 μM", "key": {"[1]": {"biological_target": "T1, Human δ-opioid (DOP) (Homo sapiens, UniProt P41143)", "T1 construct": "purchased Perkin Elmer Biosignal", "T1 sequence (P41143 whole entry)": "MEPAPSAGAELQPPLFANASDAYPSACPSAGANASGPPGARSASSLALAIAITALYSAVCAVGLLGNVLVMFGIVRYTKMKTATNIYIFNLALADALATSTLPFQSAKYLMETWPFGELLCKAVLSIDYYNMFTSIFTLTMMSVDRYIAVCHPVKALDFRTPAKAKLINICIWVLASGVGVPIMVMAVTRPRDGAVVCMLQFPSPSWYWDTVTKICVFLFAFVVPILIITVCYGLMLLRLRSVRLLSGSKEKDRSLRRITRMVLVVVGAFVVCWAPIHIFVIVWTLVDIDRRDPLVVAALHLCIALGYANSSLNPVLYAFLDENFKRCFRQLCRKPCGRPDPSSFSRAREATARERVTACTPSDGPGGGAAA", "test": "Radioligand binding, human δ-opioid (DOP) membranes, FlashPlate, [3H]-Bremazocine", "summary_of_the_method": "(§1)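 Cloned human receptor membranes were coated onto FlashPlate wells and incubated with radioligand and compound (added from a 0.5 mM DMSO daughter plate) for 1 hour at room temperature in the dark. Scintillation counting gave percent inhibition, with DMSO defining total and reference ligand defining non-specific binding.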"}, "[2]": {"biological_target": "T2, Human κ-Opioid (KOP) (Homo sapiens, UniProt P41145)", "T2 construct": "purchased Perkin Elmer Biosignal", "T2 sequence (P41145 whole entry)": "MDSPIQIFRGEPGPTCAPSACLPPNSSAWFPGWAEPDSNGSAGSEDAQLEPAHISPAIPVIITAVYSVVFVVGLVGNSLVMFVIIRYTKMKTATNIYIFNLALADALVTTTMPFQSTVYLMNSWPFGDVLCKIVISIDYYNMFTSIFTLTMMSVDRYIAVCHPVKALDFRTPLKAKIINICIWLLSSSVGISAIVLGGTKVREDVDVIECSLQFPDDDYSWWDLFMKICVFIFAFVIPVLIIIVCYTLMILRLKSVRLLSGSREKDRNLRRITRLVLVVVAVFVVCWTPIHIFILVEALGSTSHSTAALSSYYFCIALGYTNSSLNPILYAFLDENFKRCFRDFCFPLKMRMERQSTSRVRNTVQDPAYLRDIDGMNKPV", "test": "Radioligand binding, human κ-opioid (KOP) membranes, filtration, [3H]-Diprenorphine", "summary_of_the_method": "(§2)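 Membranes from cloned human receptors were incubated with compound and radioligand for 1 hour at room temperature. Bound ligand was collected on 0.3% PEI-soaked filters, washed with cold 50 mM Tris-HCl pH 7.4, and counted by scintillation. Percent inhibition was computed against DMSO totals and reference-ligand nonspecific wells.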"}, "[3]": {"biological_target": "T3, Human Melanocortin (MC3) (Homo sapiens, UniProt P41968)", "T3 construct": "purchased Perkin Elmer Biosignal", "T3 sequence (P41968 whole entry)": "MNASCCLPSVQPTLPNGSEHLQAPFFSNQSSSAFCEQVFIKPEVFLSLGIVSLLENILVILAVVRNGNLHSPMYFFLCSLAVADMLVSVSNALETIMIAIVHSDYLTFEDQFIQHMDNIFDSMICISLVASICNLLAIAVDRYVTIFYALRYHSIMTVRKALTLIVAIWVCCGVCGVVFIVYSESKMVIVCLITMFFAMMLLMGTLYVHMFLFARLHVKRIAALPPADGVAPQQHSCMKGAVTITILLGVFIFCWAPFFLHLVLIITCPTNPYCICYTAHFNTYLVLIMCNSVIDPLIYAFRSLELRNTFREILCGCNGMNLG", "test": "Radioligand binding, human melanocortin MC3 membranes, FlashPlate, [125I]-NDP-αMSH", "summary_of_the_method": "as §1"}, "[4]": {"biological_target": "T4, Human Melanocortin (MC4) (Homo sapiens, UniProt P32245)", "T4 construct": "purchased Perkin Elmer Biosignal", "T4 sequence (P32245 whole entry)": "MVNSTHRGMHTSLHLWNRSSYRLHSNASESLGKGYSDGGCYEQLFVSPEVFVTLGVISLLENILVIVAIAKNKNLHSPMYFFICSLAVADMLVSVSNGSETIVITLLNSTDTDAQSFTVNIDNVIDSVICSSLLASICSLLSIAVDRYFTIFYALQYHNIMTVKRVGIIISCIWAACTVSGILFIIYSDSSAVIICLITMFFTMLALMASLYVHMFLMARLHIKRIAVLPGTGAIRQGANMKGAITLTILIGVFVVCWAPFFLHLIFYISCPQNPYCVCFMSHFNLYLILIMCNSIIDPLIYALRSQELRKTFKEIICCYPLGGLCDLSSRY", "test": "Radioligand binding, human melanocortin MC4 membranes, FlashPlate, [125I]-NDP-αMSH", "summary_of_the_method": "as §1"}, "[5]": {"biological_target": "T5, Human melanocortin (MC5) (Homo sapiens, UniProt P33032)", "T5 construct": "purchased Perkin Elmer Biosignal", "T5 sequence (P33032 whole entry)": "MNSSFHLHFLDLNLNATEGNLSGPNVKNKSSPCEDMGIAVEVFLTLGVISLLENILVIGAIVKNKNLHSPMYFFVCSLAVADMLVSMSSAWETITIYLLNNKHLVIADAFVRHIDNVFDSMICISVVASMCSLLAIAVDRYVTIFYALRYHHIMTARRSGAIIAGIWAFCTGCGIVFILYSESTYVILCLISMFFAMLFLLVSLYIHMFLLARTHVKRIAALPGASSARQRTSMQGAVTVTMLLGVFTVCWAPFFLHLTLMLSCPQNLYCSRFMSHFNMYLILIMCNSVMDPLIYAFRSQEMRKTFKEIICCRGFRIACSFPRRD", "test": "Radioligand binding, human melanocortin MC5 membranes, FlashPlate, [125I]-NDP-αMSH", "summary_of_the_method": "as §1"}, "[6]": {"biological_target": "T6, Human melanin-concentrating hormone (MCH1) (Homo sapiens, UniProt Q99705)", "T6 construct": "purchased Perkin Elmer Biosignal", "T6 sequence (Q99705 whole entry)": "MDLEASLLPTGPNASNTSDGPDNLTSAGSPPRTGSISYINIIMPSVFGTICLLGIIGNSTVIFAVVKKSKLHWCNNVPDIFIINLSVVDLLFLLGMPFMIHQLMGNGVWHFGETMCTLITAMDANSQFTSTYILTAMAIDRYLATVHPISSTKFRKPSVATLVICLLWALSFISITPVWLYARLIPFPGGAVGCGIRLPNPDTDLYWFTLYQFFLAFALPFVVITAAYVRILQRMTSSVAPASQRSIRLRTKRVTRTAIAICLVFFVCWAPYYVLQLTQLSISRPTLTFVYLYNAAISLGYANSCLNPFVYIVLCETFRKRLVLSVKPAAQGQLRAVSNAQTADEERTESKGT", "test": "Radioligand binding, human melanin-concentrating hormone MCH1 membranes, FlashPlate, [125I]-S36057", "summary_of_the_method": "as §1"}, "[7]": {"biological_target": "T7, Human μ-opioid (MOP) (Homo sapiens, UniProt P35372)", "T7 construct": "purchased Perkin Elmer Biosignal", "T7 sequence (P35372 whole entry)": "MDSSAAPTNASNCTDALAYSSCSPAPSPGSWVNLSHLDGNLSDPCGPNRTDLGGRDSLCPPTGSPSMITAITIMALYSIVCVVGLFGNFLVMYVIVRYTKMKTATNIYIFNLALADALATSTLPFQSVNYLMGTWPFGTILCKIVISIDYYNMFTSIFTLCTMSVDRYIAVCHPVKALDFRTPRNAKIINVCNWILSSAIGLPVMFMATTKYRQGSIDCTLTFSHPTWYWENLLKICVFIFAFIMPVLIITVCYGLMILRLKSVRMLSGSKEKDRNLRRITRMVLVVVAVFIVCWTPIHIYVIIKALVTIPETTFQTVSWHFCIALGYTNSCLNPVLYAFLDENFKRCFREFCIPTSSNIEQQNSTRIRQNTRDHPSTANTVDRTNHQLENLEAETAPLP", "test": "Radioligand binding, human μ-opioid (MOP) membranes, FlashPlate, [3H]-Naloxone", "summary_of_the_method": "as §1"}, "[8]": {"biological_target": "T8, Human neurokinin (NK1) (Homo sapiens, UniProt P25103)", "T8 construct": "purchased Perkin Elmer Biosignal", "T8 sequence (P25103 whole entry)": "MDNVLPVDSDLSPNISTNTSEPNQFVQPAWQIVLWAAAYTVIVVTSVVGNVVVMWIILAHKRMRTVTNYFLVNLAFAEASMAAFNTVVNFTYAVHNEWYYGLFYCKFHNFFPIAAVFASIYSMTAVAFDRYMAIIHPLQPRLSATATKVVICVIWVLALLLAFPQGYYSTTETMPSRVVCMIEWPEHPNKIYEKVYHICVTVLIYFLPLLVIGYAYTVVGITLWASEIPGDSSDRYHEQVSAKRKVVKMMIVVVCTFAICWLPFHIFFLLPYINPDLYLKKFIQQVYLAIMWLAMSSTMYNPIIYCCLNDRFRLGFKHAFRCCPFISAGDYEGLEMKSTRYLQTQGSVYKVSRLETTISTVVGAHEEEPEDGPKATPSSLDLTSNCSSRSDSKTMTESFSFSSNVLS", "test": "Radioligand binding, human neurokinin NK1 membranes, filtration, [125I]-Substance P", "summary_of_the_method": "as §2"}, "[9]": {"biological_target": "T9, Human neuropeptide Y (NPY-Y1) (Homo sapiens, UniProt P25929)", "T9 construct": "purchased Perkin Elmer Biosignal", "T9 sequence (P25929 1-384)": "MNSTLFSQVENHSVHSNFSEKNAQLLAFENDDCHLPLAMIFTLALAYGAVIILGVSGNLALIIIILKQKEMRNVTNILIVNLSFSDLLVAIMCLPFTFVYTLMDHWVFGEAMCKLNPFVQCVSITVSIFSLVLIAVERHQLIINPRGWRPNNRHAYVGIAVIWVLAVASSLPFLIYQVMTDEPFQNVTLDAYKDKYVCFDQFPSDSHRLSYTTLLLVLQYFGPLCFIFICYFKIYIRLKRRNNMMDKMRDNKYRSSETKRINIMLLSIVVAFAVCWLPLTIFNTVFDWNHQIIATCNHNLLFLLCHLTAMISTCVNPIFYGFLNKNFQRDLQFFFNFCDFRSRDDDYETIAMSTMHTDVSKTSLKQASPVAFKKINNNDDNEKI", "test": "Radioligand binding, human neuropeptide Y NPY-Y1 membranes, FlashPlate, [125I]-PYY", "summary_of_the_method": "as §1"}, "[10]": {"biological_target": "T10, Human opioid (ORL1) (Homo sapiens, UniProt P41146)", "T10 construct": "purchased Perkin Elmer Biosignal", "T10 sequence (P41146 whole entry)": "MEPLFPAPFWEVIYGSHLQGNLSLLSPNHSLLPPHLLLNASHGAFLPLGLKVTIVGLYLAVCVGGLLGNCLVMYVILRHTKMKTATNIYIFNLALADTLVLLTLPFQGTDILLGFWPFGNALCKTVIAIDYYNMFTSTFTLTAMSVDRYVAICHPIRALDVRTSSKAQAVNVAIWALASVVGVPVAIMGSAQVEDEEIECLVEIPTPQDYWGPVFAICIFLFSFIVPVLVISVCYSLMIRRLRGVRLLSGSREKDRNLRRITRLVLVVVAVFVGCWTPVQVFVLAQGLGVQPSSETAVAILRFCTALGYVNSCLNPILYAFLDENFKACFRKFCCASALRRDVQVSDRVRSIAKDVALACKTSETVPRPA", "test": "Radioligand binding, human opioid ORL1 membranes, FlashPlate, [125I]-Nociceptin", "summary_of_the_method": "as §1"}, "[11]": {"biological_target": "T11, Mouse urotensin (mUR2) (Mus musculus, UniProt Q8VIH9)", "T11 construct": "purchased Perkin Elmer Biosignal", "T11 sequence (Q8VIH9 1-385)": "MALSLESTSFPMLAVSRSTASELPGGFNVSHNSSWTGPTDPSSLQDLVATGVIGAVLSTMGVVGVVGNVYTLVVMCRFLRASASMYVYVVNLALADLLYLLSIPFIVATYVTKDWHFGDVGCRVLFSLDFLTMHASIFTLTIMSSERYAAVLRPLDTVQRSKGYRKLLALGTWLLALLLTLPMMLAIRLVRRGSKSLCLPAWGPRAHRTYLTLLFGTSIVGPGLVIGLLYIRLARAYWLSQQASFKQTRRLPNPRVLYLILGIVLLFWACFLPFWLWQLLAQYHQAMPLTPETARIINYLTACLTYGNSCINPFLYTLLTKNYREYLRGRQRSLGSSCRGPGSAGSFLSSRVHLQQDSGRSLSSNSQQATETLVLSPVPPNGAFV", "test": "Radioligand binding, mouse urotensin mUR2 membranes, FlashPlate, [125I]-Urotensin II", "summary_of_the_method": "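Cloned mouse urotensin (mUR2) receptor membranes from Perkin Elmer Biosignal were immobilized in FlashPlate microplates using a proprietary coating. Each well got 19.5 μl buffer, then 0.5 μl of DMSO, reference ligand, or compound. Adding 5 μl of [125I]-Urotensin II, diluted to 5× final concentration in binding buffer, started binding. Plates were sealed with TopSeal-A and incubated 1 hour at room temperature in the dark. Wells were counted for 30 seconds each on a TopCount after a 60-second delay, and percentage inhibition was calculated.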"}}}
{"smiles": "COCC1OC(OCc2ccc3ccccc3c2)C(NC(=O)CCCN)C(OCc2ccc(Cl)cc2)C1O", "note": "(stereo not drawn) [compound 239]", "values": [{"measurement": "A1: inhibition of radioligand binding", "setting": "[1]; [3H]-Bremazocine, FlashPlate", "value": "− (“−” indicates less than 50% inhibition at 10 μM)"}, {"measurement": "A2: inhibition of radioligand binding", "setting": "[2]; [3H]-Diprenorphine, filtration", "value": "− (“−” indicates less than 50% inhibition at 10 μM)"}, {"measurement": "A3: inhibition of radioligand binding", "setting": "[3]; [125I]-NDP-αMSH, FlashPlate", "value": "− (“−” indicates less than 50% inhibition at 10 μM)"}, {"measurement": "A4: inhibition of radioligand binding", "setting": "[4]; [125I]-NDP-αMSH, FlashPlate", "value": "− (“−” indicates less than 50% inhibition at 10 μM)"}, {"measurement": "A5: inhibition of radioligand binding", "setting": "[5]; [125I]-NDP-αMSH, FlashPlate", "value": "+ (“+” indicates greater than 50% inhibition at 10 μM)"}, {"measurement": "A6: inhibition of radioligand binding", "setting": "[6]; [125I]-S36057, FlashPlate", "value": "− (“−” indicates less than 50% inhibition at 10 μM)"}, {"measurement": "A7: inhibition of radioligand binding", "setting": "[7]; [3H]-Naloxone, FlashPlate", "value": "− (“−” indicates less than 50% inhibition at 10 μM)"}, {"measurement": "A8: inhibition of radioligand binding", "setting": "[8]; [125I]-Substance P, filtration", "value": "+ (“+” indicates greater than 50% inhibition at 10 μM)"}, {"measurement": "A9: inhibition of radioligand binding", "setting": "[9]; [125I]-PYY, FlashPlate", "value": "− (“−” indicates less than 50% inhibition at 10 μM)"}, {"measurement": "A10: inhibition of radioligand binding", "setting": "[10]; [125I]-Nociceptin, FlashPlate", "value": "− (“−” indicates less than 50% inhibition at 10 μM)"}, {"measurement": "A11: inhibition of radioligand binding", "setting": "[11]; [125I]-Urotensin II, FlashPlate", "value": "− (“−” indicates less than 50% inhibition at 10 μM)"}]}
{"smiles": "COC[C@H]1OC(OCc2ccc(-c3ccccc3)cc2)[C@H](NC(=O)CCCNC(=N)N)[C@@H](OCc2ccccc2)[C@@H]1O", "note": "(stereo partly drawn) [compound 9]", "values": [{"measurement": "A1 radioligand binding inhibition", "setting": "[1]; human δ-opioid (DOP) membranes", "value": "− (“−” indicates less than 50% inhibition at 10 μM)"}, {"measurement": "A2 radioligand binding inhibition", "setting": "[2]; human κ-opioid (KOP) membranes", "value": "− (“−” indicates less than 50% inhibition at 10 μM)"}, {"measurement": "A3 radioligand binding inhibition", "setting": "[3]; human melanocortin MC3 membranes", "value": "− (“−” indicates less than 50% inhibition at 10 μM)"}, {"measurement": "A4 radioligand binding inhibition", "setting": "[4]; human melanocortin MC4 membranes", "value": "− (“−” indicates less than 50% inhibition at 10 μM)"}, {"measurement": "A5 radioligand binding inhibition", "setting": "[5]; human melanocortin MC5 membranes", "value": "− (“−” indicates less than 50% inhibition at 10 μM)"}, {"measurement": "A6 radioligand binding inhibition", "setting": "[6]; human MCH1 membranes, 10 µM", "value": "− (“−” indicates less than 50% inhibition at 10 μM)"}, {"measurement": "A7 radioligand binding inhibition", "setting": "[7]; human μ-opioid (MOP) membranes", "value": "− (“−” indicates less than 50% inhibition at 10 μM)"}, {"measurement": "A8 radioligand binding inhibition", "setting": "[8]; human neurokinin NK1 membranes", "value": "+ (“+” indicates greater than 50% inhibition at 10 μM)"}, {"measurement": "A9 radioligand binding inhibition", "setting": "[9]; human NPY-Y1 membranes", "value": "− (“−” indicates less than 50% inhibition at 10 μM)"}, {"measurement": "A10 radioligand binding inhibition", "setting": "[10]; human ORL1 membranes", "value": "− (“−” indicates less than 50% inhibition at 10 μM)"}, {"measurement": "A11 radioligand binding inhibition", "setting": "[11]; mouse urotensin mUR2 membranes", "value": "− (“−” indicates less than 50% inhibition at 10 μM)"}]}
{"smiles": "NCCC(=O)NC1C(OCc2ccc(Cl)cc2)OC(COCc2ccc3ccccc3c2)C(O)C1OCc1ccccc1", "note": "(single isomer, unassigned) [compound 483]", "values": [{"measurement": "A1: inhibition of radioligand binding, human δ-opioid (DOP)", "setting": "[1]; [3H]-Bremazocine", "value": "− (“−” indicates less than 50% inhibition at 10 μM)"}, {"measurement": "A2: inhibition of radioligand binding, human κ-opioid (KOP)", "setting": "[2]; [3H]-Diprenorphine", "value": "− (“−” indicates less than 50% inhibition at 10 μM)"}, {"measurement": "A3: inhibition of radioligand binding, human melanocortin (MC3)", "setting": "[3]; [125I]-NDP-αMSH", "value": "− (“−” indicates less than 50% inhibition at 10 μM)"}, {"measurement": "A4: inhibition of radioligand binding, human melanocortin (MC4)", "setting": "[4]; [125I]-NDP-αMSH", "value": "− (“−” indicates less than 50% inhibition at 10 μM)"}, {"measurement": "A5: inhibition of radioligand binding, human melanocortin (MC5)", "setting": "[5]; [125I]-NDP-αMSH", "value": "+ (“+” indicates greater than 50% inhibition at 10 μM)"}, {"measurement": "A6: inhibition of radioligand binding, human melanin-concentrating hormone (MCH1)", "setting": "[6]; [125I]-S36057", "value": "− (“−” indicates less than 50% inhibition at 10 μM)"}, {"measurement": "A7: inhibition of radioligand binding, human μ-opioid (MOP)", "setting": "[7]; [3H]-Naloxone", "value": "− (“−” indicates less than 50% inhibition at 10 μM)"}, {"measurement": "A8: inhibition of radioligand binding, human neurokinin (NK1)", "setting": "[8]; [125I]-Substance P", "value": "+ (“+” indicates greater than 50% inhibition at 10 μM)"}, {"measurement": "A9: inhibition of radioligand binding, human neuropeptide Y (NPY-Y1)", "setting": "[9]; [125I]-PYY", "value": "− (“−” indicates less than 50% inhibition at 10 μM)"}, {"measurement": "A10: inhibition of radioligand binding, human opioid (ORL1)", "setting": "[10]; [125I]-Nociceptin", "value": "− (“−” indicates less than 50% inhibition at 10 μM)"}, {"measurement": "A11: inhibition of radioligand binding, mouse urotensin (mUR2)", "setting": "[11]; [125I]-Urotensin II", "value": "− (“−” indicates less than 50% inhibition at 10 μM)"}]}
